We go through 2 molecules from PMC2137757 (The Journal of Experimental Medicine, 1964).

The test system of series [1] is adrenal cortex. Kind of series: Adrenal damage.
Series [2] in a line: Survival after a single feeding. Particulars: 30 mg, animals invariably succumbed.
Series [3] can be described thus: Solubility of hydrocarbons in sesame oil. Particulars: room temperature; approximately.
The subject of series [4] is adrenal cortex. Put plainly: Induced protection of adrenal against 7,12-DMBA. Format: in vivo, rat.
The test system of series [5] is adrenal cortex. Particulars: cited from earlier work.
For series [6], the system named is acid-insoluble residue (DNA) of liver. Particulars: 7,12-DMBA 5 mg i.v. at -4 hours; TdRH3 at 0 hours; liver at +20 hours; Fig. 3.
In series [7] the test system is menadione reductase (EC 1.6.5.2). Kind of series: Induction of menadione reductase in tissues. It is filed as in vivo, rat.
Series [8] relates to adrenal cortex. Particulars: single preliminary feeding; cited from earlier work.
Series [9] concerns deoxyribonucleic acid of adrenal. It is filed as in vivo, rat. Particulars: Table VII.
Setting [10] is: 7,12-DMBA oral 10 mg at -48 hrs.
Setting [11] is: 7,12-DMBA oral 10 mg at -48 hrs, 7,12-DMBA 5 mg i.v. at -4 hrs.

Each structure is given as a SMILES string. Like-named read-outs stand apart in the source and are kept apart here. Bounds are passed on as bounds.

For `CN(C)c1ccc(C=Cc2ccccc2)cc1` [4-dimethylaminostilbene], in series [1] (feeding, 30 mg), the Adrenal necrosis entry is listed as “did not induce necrosis”. This molecule also yielded a Time to death in [2] of at most 5 days.

Regarding `Cc1c2ccccc2c(C)c2c1ccc1ccccc12` [7,12-DMBA, 7,12-Dimethylbenz[a]anthracene], the “Solubility w/v in sesame oil” value in series [3] is recorded as around 10 per cent. The same molecule gave a Rats protected in series [4] (1 mg by intravenous injection on day -1, group of 8) of 5. Moreover, the Adrenal protection result is on record as “no amount was found which induced complete protection” in series [4] (0.5 to 1.5 mg injected intravenously as protector on day -1) and “protected adrenals completely” in series [4] (single feeding 2 mg to 10 mg, 1 day prior to 7,12-DMBA 5 mg i.v.). In series [1] (5 mg given by vein), the Adrenal hemorrhage entry is reported as “invariably caused adrenal hemorrhage”. Besides, the Adrenal apoplexy is on record as 0 in [1] (Table I, 7,12-DMBA 30 mg/kg i.v., age 30 days, adrenals 72 hours later, 8 rats); 6/8 in series [1] (Table I, 7,12-DMBA 30 mg/kg i.v., age 35 days, 8 rats); 8/8 in series [1] (Table I, 7,12-DMBA 30 mg/kg i.v., age 40 days, 8 rats); 8/8 in series [1] (Table I, 7,12-DMBA 30 mg/kg i.v., age 42 days, 8 rats); 8/8 in [1] (Table I, 7,12-DMBA 30 mg/kg i.v., age 45 days, 8 rats); “failed to induce apoplexy” in series [1] (feeding of 5 mg). For the same molecule, the Adrenal apoplexy entry in series [5] (single feeding 30 mg, adult rats) was “induces adrenal apoplexy in all adult rats”. Moreover, in series [5] (intravenous), the “Intravenous amount that itself causes adrenal necrosis” value is recorded as at least 2 mg. Also, the “Incorporation of tritium into acid-insoluble residue of liver” value in series [6] was 56 per cent of control values. In addition, the Hepatic menadione reductase in series [7] (7,12-DMBA 5 mg i.v. at 0 hours, lipide at 24 hours, measured at 48 hours, Fig. 5) is given as 269 per cent of controls. The “Time of first rise in hepatic menadione reductase” value in [7] (7,12-DMBA 5 mg intravenous, Fig. 3) was found to be 3 h. For the same molecule, in [7] (7,12-DMBA 5 mg oral, Fig. 3), the “Time of first elevation in hepatic menadione reductase” value worked out at 8 h. For the same molecule, the “Protection of adrenal from damage by a large dose of 7,12-DMBA” value in series [8] was “protects”. The “Tritium content of adrenal, per cent of controls” value was 40 per cent in [9] (7,12-DMBA 5 mg i.v. at -4 hrs), 91 per cent in series [9] (setting [10]) and 48 per cent in series [9] (setting [11]). Moreover, the entries for the “Tritium content of adrenal” value in series [9] (setting [10]) and in series [9] (setting [11]) were 0.120 ~clgm and 0.064 ~clgm, respectively.
